For 3 compounds, inhibition, IC50 and EC50 results are on record in PMC7985445, “Characterization of Plasmodium falciparum Pantothenate Kinase and Identification of Its Inhibitors From Natural Products” (Frontiers in Cellular and Infection Microbiology, 2021).

Each structure is given as a SMILES string. Read-outs that look alike come from different tables or passages of the source.

Assay [1] addresses T1, PfPanK1 (Plasmodium falciparum, UniProt Q8ILP4).
T1 sequence (Q8ILP4 1-519): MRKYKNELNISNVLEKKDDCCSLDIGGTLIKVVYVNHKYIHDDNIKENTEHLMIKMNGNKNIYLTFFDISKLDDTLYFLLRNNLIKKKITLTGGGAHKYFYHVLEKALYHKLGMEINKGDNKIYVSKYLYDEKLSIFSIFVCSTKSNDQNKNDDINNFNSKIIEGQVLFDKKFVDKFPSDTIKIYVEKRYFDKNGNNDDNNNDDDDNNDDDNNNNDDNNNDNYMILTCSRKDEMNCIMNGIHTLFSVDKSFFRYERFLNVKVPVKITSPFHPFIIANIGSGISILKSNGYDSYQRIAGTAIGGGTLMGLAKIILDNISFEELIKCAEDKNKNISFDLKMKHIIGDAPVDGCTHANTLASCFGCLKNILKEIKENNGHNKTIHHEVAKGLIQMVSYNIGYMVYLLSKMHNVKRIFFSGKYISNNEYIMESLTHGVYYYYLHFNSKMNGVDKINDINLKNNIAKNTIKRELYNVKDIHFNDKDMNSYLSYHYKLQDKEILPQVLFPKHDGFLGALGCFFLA
Nature of the assay: Screening of natural compounds for PfPanK inhibitors and IC50 determination (recombinant enzyme, ADP Hunter Plus). Format: biochemical.
Procedure: We screened 247 compounds from the Kitasato Natural Products Library ([Mori et al., 2015]; [Nurkanto et al., 2018]) against PfPanK recombinant enzyme. Compounds were dissolved in 50% DMSO at a final concentration of 1 mg/ml.

Assay [2] deals with P. falciparum K1 and FCR3 strain. As to conditions: cited from earlier work.
Assay [3] concerns Plasmodium falciparum sensitive strain 3D7. Nature of the assay: P. falciparum asexual blood stage growth, diaphorase-coupled LDH assay. Format: cell-based. As to conditions: 3D7, 72 h incubation, mean ± SEM, read-out: IC50 P. falciparum erythrocytic stages.
Procedure: Before using, parasite culture was synchronized with 5% (w/v) d-sorbitol, as previously described ([Lambros and Vanderberg, 1979]). Ring stage 0.3% parasitemia (25 µl/well) were placed in a 384-well plate. Serial dilutions (50, 25, 12.5, 6.3, 3.1, 1.6, 0.8, and 0.4 μM) of each compound were used for calculating IC50. As the negative growth control, 50 µM of Mefloquine and 20 µM of Atovaquone were used. After 72 h of incubation, parasite growth was determined by diaphorase-coupled lactate dehydrogenase (LDH) assay, as previously described ([Hartuti et al., 2018]). Each well’s absorbance was measured at 650 nm using SpectraMax Paradigm®Multi-Mode microplate reader (Molecular Devices, San Jose, CA, USA). The IC50 values were analyzed and calculated with GraphPad PRISM 8.0 (San Diego, California USA).
In assay [4] the test system is various human cell lines. Also noted: method as in Koizumi et al., 2009. As to conditions: ref Koizumi et al., 2009; cited from earlier work.
The mark [5] stands for this setting: recombinant PfPanK1; mean ± SEM.

As usually defined, the inhibition is the relative decrease from the control value, in per cent. In general, IC50 refers to the concentration that gives 50% inhibition. The term EC50 denotes the midpoint of the concentration-response curve.

For `CC(=O)Oc1cccc2c(=O)c3c4c(c(=[N+]=[N-])c=3c(=O)c12)C(OC(C)=O)C(C)(OC(C)=O)C(OC(C)=O)C4OC(C)=O` (stereo not shown) [Diacetylkinamycin C], the inhibition in assay [1] (primary screening; 37°C, 2 h) came to 96.1%. Besides, the IC50 in assay [1] (setting [5]) is 36.2 ± 4.7 µM; in assay [2] (FCR3 strain, ref Shimizu el al., 2019, unpublished, read-out: IC50 P. falciparum erythrocytic stages), 1100 nM; in assay [2] (K1 strain, ref Shimizu el al., 2019, unpublished, read-out: IC50 P. falciparum erythrocytic stages), 2200 nM; in assay [2] (range over drug-resistant K1 and drug-sensitive FCR3 strain, ref Shimizu et al., 2019, unpublished, read-out: IC50 against P. falciparum) it was 1100 to 2200 nM.

As for `OC[C@H]1O[C@@H](Oc2ccc(/C=C/c3cc(O)c4c(c3)O[C@H](c3ccc(O)cc3)[C@H]4c3cc(O)cc(O)c3)cc2)[C@H](O)[C@@H](O)[C@@H]1O` [Gnemonoside D], the IC50 in assay [3] amounted to 1900 ± 600 nM; in assay [1] (setting [5]), 57.5 ± 3.6 µM. In addition, the inhibition in assay [1] (primary screening; 37°C, 2 h) is 85%.

With `COc1c2c(c(O)c3c(=O)c4c(oc13)[C@@H](O)CC[C@@H]4O)-c1c3c(c4cc(C)n(C)c(=O)c4c1O)OCO[C@H]3C2` [Simaomicin α], the inhibition in assay [1] (2 h, primary screening; 37°C) is 76.9%. Further, the IC50 in assay [1] (setting [5]) is 57.6 ± 4.8 µM; in assay [2] (FCR3 strain, ref Ui et al., 2007, read-out: IC50 P. falciparum erythrocytic stages), 0.018 nM; in assay [2] (K1 strain, ref Ui et al., 2007, read-out: IC50 P. falciparum erythrocytic stages) it was 0.083 nM. Further, the EC50 in assay [4] was 0.3 to 19 nM.
